{"source": "patent US9386938B2", "about": "“Methods for collagen imaging” (Collagen Medical, LLC, priority 2005, dated 2016)", "key": {"infarcted myocardium": {"system": "infarcted myocardium", "experiment": "Myocardial infarction MR imaging in mouse, 7 days post MI", "assay_type": "in vivo, C57BL/6 mouse", "settings": "25 μmol/kg i.v. bolus"}, "myocardium": {"system": "myocardium", "experiment": "Myocardial MR imaging in mouse", "assay_type": "in vivo, C57BL/6 mouse", "settings": "25 μmol/kg i.v. bolus, 4.7-T"}, "[1]": {"experiment": "Heart uptake in mice, gadolinium by ICP-MS", "settings": "mouse, mesentery vein injection", "quoted_text": "Male BALB/c mice were anesthetized with pentobarbital (80 mg/kg ip). Following deep anesthesia, a longitudinal incision was made above the base of the abdomen up to just below the sternum. Internal organs were carefully moved out of the body cavity to the left, exposing the mesentery vein. […] The animals were sacrificed at 1, 5, 15, or minutes post-injection. The heart and lungs were immediately removed and rinsed in saline, separated from each other and rinsed with saline again. Both were removed and carefully dried before being prepared for analysis. Organs were digested with nitric acid and gadolinium content determined by ICP-MS."}, "[2]": {"experiment": "In vivo heart uptake of collagen binding agent and non-binding analog", "settings": "mouse, 10 μmol/kg tail vein, 15 minutes post-injection, N=4"}, "[3]": {"system": "perfused Langendorff rat heart", "experiment": "Washout kinetics from perfused Langendorff rat heart", "settings": "perfusion with buffer for 10 minutes", "description": "(§1) After deep anesthesia with pentobarbital (80 mg/kg ip), the chest cavity of a male Sprague Dawley rat (300 g) was opened, retracted and the heart was removed immediately and placed in an ice-cold normal Krebs-Henseleit (K-H) solution (NaCl, 118 mM; KCl, 4.7 mM; CaCl2, 2.5 mM; MgSO4, 1.2 mM; KH2PO4, 1.2 mM; NaHCO3, 25 mM; glucose, 5.5 mM). A K-H buffer filled 20 Gauge needle was inserted into the apex of the heart penetrating into the bottom of the chamber. This was attached to a pressure transducer used to record and monitor heart function. Perfusion pressure (˜60 mmHg) was monitored using a second transducer. The heart was perfused at a constant flow rate of 10-12 mL/min with 37° C. Krebs-Henseleit buffer saturated with a mixture of 95% O2 and 5% CO2 gas. The heart was paced at 300 beats/min.\nA Langendorff rat heart preparation was perfused with K-H buffer at a rate of 10-12 mL/min. A one mL solution containing SEQ ID NO: 144 (300 μM), radiolabeled (I-125) SEQ ID NO: 144 (1-6 μCi), GdDTPA (300 μM), and radiolabeled (Tc-99m) DTPA (5-8 μCi) was infused into the heart at a rate of 1 mL/min. After the infusion was finished, the heart was either removed or perfusion was allowed to continue for an additional 10 minutes and then the heart was removed. The perfusion buffer was not recirculated through the heart. After removal of any connective tissue, the heart was opened, fluid in the chambers drained, and the interior blotted dry with filter paper. The heart was then weighed and the radioactivity in the heart measured with a Packard Cobra 5003 Gamma Scintillation counter. […] An aliquot of the K-H buffer was also weighed and counted. Concentration estimates were decay corrected. Studies were performed at least in duplicate.\nA Langendorff rat heart preparation was perfused with K-H buffer at a rate of 10-12 mL/min. […] The heart was then weighed and the radioactivity in the heart measured with a Packard Cobra 5003 Gamma Scintillation counter. […] An aliquot of the K-H buffer was also weighed and counted. […]"}, "[4]": {"experiment": "Biodistribution analysis in rats (heart and blood radioactivity)", "settings": "rat", "quoted_text": "(§2) At either one or five minutes post injection the animals were sacrificed and the blood and heart collected. The heart was rinsed in a saline and blotted dry before analysis. […] An aliquot of the injection solution was also weighed and counted. Concentration estimates were decay corrected. Studies were performed at least in duplicate."}, "rat type I collagen": {"target": "T1, rat type I collagen (Rattus norvegicus, UniProt P02454+P02466)", "T1 construct": "Rat collagen (acid soluble, type I, rat tail); purchased Upstate USA, Inc 08-115; host or cells: rat tail (tissue extract)", "T1 sequence (P02454 152-1207 limits assumed)": "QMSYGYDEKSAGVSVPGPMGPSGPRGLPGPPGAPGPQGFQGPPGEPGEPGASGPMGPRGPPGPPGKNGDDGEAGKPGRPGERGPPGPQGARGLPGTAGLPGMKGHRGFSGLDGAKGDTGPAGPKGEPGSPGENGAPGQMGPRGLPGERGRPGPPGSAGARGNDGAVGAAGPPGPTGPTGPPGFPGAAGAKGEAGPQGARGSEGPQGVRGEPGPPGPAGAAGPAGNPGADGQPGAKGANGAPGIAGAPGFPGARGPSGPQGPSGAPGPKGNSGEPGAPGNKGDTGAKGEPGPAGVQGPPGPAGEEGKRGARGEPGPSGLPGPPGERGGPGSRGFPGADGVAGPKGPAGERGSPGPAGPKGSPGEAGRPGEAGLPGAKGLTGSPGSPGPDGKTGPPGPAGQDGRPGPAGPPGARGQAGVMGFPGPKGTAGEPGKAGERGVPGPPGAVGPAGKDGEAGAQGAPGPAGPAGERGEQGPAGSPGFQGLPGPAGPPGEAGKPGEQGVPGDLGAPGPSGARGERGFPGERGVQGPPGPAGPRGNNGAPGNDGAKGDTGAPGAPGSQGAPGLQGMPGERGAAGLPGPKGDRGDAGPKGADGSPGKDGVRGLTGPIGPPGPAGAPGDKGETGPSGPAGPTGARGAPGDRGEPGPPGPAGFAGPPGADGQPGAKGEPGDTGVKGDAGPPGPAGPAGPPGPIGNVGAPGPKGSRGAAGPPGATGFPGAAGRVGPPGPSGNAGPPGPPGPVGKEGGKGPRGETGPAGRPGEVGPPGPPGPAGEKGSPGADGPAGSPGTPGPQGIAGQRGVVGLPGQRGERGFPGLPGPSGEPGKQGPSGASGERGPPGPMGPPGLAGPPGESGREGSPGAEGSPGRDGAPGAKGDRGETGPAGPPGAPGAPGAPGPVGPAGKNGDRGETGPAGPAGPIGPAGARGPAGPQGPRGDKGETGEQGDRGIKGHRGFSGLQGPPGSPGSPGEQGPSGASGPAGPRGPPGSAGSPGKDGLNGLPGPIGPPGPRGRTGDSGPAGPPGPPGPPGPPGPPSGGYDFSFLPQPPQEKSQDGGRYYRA", "T1 sequence (P02466 86-1125 limits assumed)": "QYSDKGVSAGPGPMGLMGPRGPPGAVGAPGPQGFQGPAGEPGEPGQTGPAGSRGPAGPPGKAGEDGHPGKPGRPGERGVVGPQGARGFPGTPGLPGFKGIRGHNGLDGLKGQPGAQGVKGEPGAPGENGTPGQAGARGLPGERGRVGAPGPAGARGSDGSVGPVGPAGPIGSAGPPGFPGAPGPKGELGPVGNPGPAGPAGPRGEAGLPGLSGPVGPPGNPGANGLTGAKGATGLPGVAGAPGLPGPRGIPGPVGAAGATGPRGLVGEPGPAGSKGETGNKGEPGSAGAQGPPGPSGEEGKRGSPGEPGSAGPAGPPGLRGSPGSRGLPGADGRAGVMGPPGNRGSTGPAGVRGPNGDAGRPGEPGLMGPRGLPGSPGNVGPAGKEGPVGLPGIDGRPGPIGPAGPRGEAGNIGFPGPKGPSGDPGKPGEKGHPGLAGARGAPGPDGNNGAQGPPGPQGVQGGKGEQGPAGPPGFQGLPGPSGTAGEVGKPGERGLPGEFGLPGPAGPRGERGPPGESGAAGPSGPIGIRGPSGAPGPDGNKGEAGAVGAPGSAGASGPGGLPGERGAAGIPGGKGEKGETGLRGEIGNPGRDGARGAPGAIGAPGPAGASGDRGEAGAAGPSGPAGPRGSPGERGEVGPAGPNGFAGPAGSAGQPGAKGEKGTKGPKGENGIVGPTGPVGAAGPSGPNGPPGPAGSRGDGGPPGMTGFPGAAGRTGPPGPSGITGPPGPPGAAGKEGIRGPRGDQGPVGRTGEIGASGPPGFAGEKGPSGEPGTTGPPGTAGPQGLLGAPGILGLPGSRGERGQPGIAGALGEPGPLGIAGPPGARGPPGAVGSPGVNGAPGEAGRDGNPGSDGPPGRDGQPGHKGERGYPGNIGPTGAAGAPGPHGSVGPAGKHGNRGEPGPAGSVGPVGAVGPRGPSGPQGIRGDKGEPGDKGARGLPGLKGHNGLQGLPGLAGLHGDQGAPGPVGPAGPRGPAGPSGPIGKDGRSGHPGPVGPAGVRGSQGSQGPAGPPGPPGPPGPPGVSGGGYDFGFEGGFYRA", "experiment": "MR phantom imaging at 4.7 T of rat collagen gel samples", "settings": "samples 4 and 8 (centrifuged)", "description": "Samples: • 1. […] Sample prepared as sample 2, but centrifuged to separate insoluble rat collagen gel • 5. Sample prepared as sample 3, but centrifuged to separate insoluble human collagen gel • 6. 27 μM GdDTPA solution in PBS, pH 7.4 • 7. 27 μM GdDTPA in a solution of 5.0 μM rat type I collagen in 10 mM phosphate buffer, pH 5 incubated at 37° C. overnight to form a gel • 8. Sample prepared as in sample 7, but centrifuged to separate insoluble rat collagen gel • 9. Homogeneous gel of 5 μM rat collagen • 10. Homogeneous gel of 7.5 μM human collagen\nSamples for imaging were placed in glass tubes that were in turn placed in tubes containing water. Images were acquired at 4.7 T on a Bruker Biospec Imager using a Multi-Slice Multi-Echo Method with variable Relaxation Delay (MSMEVTR) experiment. The spin echo time and the relaxation delay were set to TE=11.2 ms and TR=500 ms, respectively with a flip angle of 30°. Images were acquired of sample 2, sample 4, sample 7, and sample 8. […] Sample 7 and 8 show uniform signal intensity."}, "[5]": {"system": "perfused Langendorff rat heart", "experiment": "Equilibrium binding to perfused Langendorff rat heart", "settings": "10 minutes", "description": "as §1\nTwo peptide test articles, a high collagen binding peptide (SEQ ID NO: 144) and a low collagen binding peptide (SEQ ID NO: 173), are compared to GdDTPA. The appropriate test article was added to the K-H buffer solution to a total concentration of either 3 or 30 μM. Also added to the K-H buffer was a radiotracer analog of each peptide or GdDTPA. For the peptides, the radiotracer was an aliquot of the appropriate 1-125 labeled peptide derivative (see Example 5 for protocol). For GdDTPA, the tracer added was Tc-99m labeled DTPA. The amount of radioactivity added to the buffer solution was 1-5 μCi.\nThe heart was perfused for a period of 10 minutes and the perfusion solution was recycled through the heart. The total volume of K-H buffer used was 50-60 mL. After 10 min, the heart was removed from the apparatus and any connective tissue was removed. The heart was opened, fluid in the chambers drained, and the interior blotted dry with filter paper. The heart was then weighed and the radioactivity in the heart measured with a Packard Cobra 5003 Gamma Scintillation counter. An aliquot of the K-H buffer was also weighed and counted. Studies were performed at least in duplicate.\nThe dual peptide gadolinium tetramer (Compound ID 803) was compared to GdDTPA. Compound ID 803 and GdDTPA were added to the K-H buffer solution to a total concentration of 3 μM. Also added to the K-H buffer was a radiotracer analog of Compound ID 803 or GdDTPA. For Compound ID 803, the radiotracer was an aliquot of the In-111 labeled compound. For GdDTPA, the tracer added was Tc-99m labeled DTPA. The amount of radioactivity added to the buffer solution was 1-5 μCi."}, "[6]": {"settings": "rat, in vivo", "quoted_text": "as §2"}}, "note": "Values joined by “and” are separate entries in the source; they are usually repeats but may differ in a detail not shown here. Identical values can stand only once. Like-named read-outs stand apart in the source and are kept apart here. Bridge positions count the residues as written; N and C are the ends. Ends that are not written are not given here. Glu‑DTPA‑Gd = N-terminal Glu-DTPA-Gd chelate (gadolinium DTPA complex on glutamic acid)"}
{"compound": "CC(C)C[C@H](NC(=O)[C@@H]1CSSC[C@H](NC(=O)[C@H](Cc2c[nH]cn2)NC(=O)[C@H](Cc2c[nH]c3ccccc23)NC(=O)[C@H](CCCCNC(=O)CNC(=S)Nc2ccc(C[C@@H](CN(CCN(CC(=O)O)CC(=O)O)CC(=O)O)N(CC(=O)O)CC(=O)O)cc2)NC(=O)CNC(=S)Nc2ccc(C[C@@H](CN(CCN(CC(=O)O)CC(=O)O)CC(=O)O)N(CC(=O)O)CC(=O)O)cc2)C(=O)N[C@@H]([C@@H](C)O)C(=O)N[C@@H]([C@@H](C)O)C(=O)N[C@@H](CCCCNC(=S)Nc2ccc(C[C@@H](CN(CCN(CC(=O)O)CC(=O)O)CC(=O)O)N(CC(=O)O)CC(=O)O)cc2)C(=O)N[C@@H](Cc2ccccc2)C(=O)N2CCC[C@H]2C(=O)N[C@@H](Cc2c[nH]cn2)C(=O)N[C@@H](Cc2c[nH]cn2)C(=O)N[C@@H](Cc2ccc(O)cc2)C(=O)N1)C(=O)N[C@@H](Cc1ccc(O)cc1)C(=O)N[C@@H](Cc1ccc(-c2ccccc2)cc1)C(N)=O", "note": "[Compound ID 800]", "values": [{"measurement": "MR enhancement of infarcted regions", "setting": "infarcted myocardium", "result": "hyperenhancement of infarcted zones"}, {"measurement": "persistence of enhancement", "setting": "infarcted myocardium", "result": "at least 1 hour"}, {"measurement": "persistence of positive enhancement of the myocardium", "setting": "myocardium", "result": "at least 1 hour"}, {"measurement": "retention of gadolinium in the heart", "setting": "[1]", "result": "≥ 30", "unit": "min"}]}
{"compound": "CC(C)C[C@H](NC(=O)[C@@H]1CSSC[C@@H](NC(=O)[C@H](Cc2c[nH]cn2)NC(=O)[C@H](Cc2c[nH]c3ccccc23)NC(=O)[C@H](CCCCNC(=O)CNC(=S)Nc2ccc(C[C@@H](CN(CCN(CC(=O)O)CC(=O)O)CC(=O)O)N(CC(=O)O)CC(=O)O)cc2)NC(=O)CNC(=S)Nc2ccc(C[C@@H](CN(CCN(CC(=O)O)CC(=O)O)CC(=O)O)N(CC(=O)O)CC(=O)O)cc2)C(=O)N[C@@H]([C@@H](C)O)C(=O)N[C@@H]([C@@H](C)O)C(=O)N[C@@H](CCCCNC(=S)Nc2ccc(C[C@@H](CN(CCN(CC(=O)O)CC(=O)O)CC(=O)O)N(CC(=O)O)CC(=O)O)cc2)C(=O)N[C@@H](Cc2ccccc2)C(=O)N2CCC[C@H]2C(=O)N[C@@H](Cc2c[nH]cn2)C(=O)N[C@@H](Cc2c[nH]cn2)C(=O)N[C@@H](Cc2ccc(O)cc2)C(=O)N1)C(=O)N[C@@H](Cc1ccc(O)cc1)C(=O)N[C@@H](Cc1ccc(-c2ccccc2)cc1)C(N)=O", "note": "[Compound ID 1019]", "values": [{"measurement": "Gadolinium concentration in the blood", "setting": "[2]", "result": "13.3±0.3", "unit": "nmol Gd/g tissue"}, {"measurement": "Gadolinium concentration in the heart", "setting": "[2]", "result": "14.7±1.0", "unit": "nmol Gd/g tissue"}]}
{"compound": "O=C([O-])CN(CCN(CC(=O)[O-])CC(=O)O)CCN(CC(=O)[O-])CC(=O)O.[Gd+3]", "note": "[GdDTPA, gadolinium diethylenetriaminepentaacetate, reference compound]", "values": [{"measurement": "amount remaining in heart at 10 minutes after infusion relative to 0 minutes post infusion", "setting": "[3]", "result": "0.5% and 2.2%"}, {"measurement": "Heart:Blood", "setting": "[4]; 1 min post injection", "result": 0.26}, {"measurement": "Heart:Blood", "setting": "[4]; 5 min post injection", "result": 0.26}, {"measurement": "MR signal of centrifuged rat collagen gel pellet versus supernatant", "setting": "rat type I collagen", "result": "no increased concentration of GdDTPA in the gel relative to the supernatant"}]}
{"compound": "Glu-DTPA-Gd-G.Q.W.H.C.T.T.R.F.P.H.H.Y.C.L.Y.G-PEG-H ({Glu‑DTPA‑Gd}-GQWHCTTRFPHHYCLYG; disulfide 5-14 (inferred); not fully specified (C-terminus)) [SEQ ID NO. 186]", "values": [{"measurement": "MR signal of centrifuged rat collagen gel pellet versus supernatant", "setting": "rat type I collagen", "result": "the pellet for sample 4 was much brighter than the supernatant"}]}
{"compound": "Q W T C S G D A Y T W H C N Y E (GQWTCSGDAYTWHCNYE; disulfide 5-14 (inferred); not fully specified (C-terminus)) [SEQ ID NO. 144]", "values": [{"measurement": "amount remaining in heart at 10 minutes after infusion relative to 0 minutes post infusion", "setting": "[3]", "result": 68, "unit": "%"}, {"measurement": "heart uptake relative to GdDTPA", "setting": "[5]", "result": "about 10 times"}, {"measurement": "Heart:Blood", "setting": "[6]", "result": 0.38}]}
